Broadly, the IC50 is the point on the concentration scale where inhibition reaches its midpoint. A high value points to weaker potency.

Consider 20 compounds from US6689754B1, “Heterocyclic glycyl β-alanine derivatives” (G. D. Searle & Co., priority 1998, dated 2004).

Experiment [1] addresses T1, Human vitronectin receptor (αvβ3) (Homo sapiens, UniProt P05106+P06756).
T1 construct: Human vitronectin receptor (αvβ3) was purified from human placenta; from tissue; host or cells: human placenta
Kind of experiment: Vitronectin adhesion assay: solid phase receptor assay, competition with biotinylated vitronectin. In kind it is binding. To be noted: purified human vitronectin receptor; 1 nM biotinylated vitronectin. The procedure:
Vitronectin Adhesion Assay
Human vitronectin receptor (αvβ3) was purified from human placenta as previously described [Pytela et al., Methods in Enzymology, 144:475-489 (1987)]. Human vitronectin was purified from fresh frozen plasma as previously described [Yatohgo et al., Cell Structure and Function, 13:281-292 (1988)]. Biotinylated human vitronectin was prepared by coupling NHS-biotin from Pierce Chemical Company (Rockford, Ill.) to purified vitronectin as previously described [Charo et al., J. Biol. Chem., 266(3):1415-1421 (1991)]. Assay buffer, OPD substrate tablets, and RIA grade BSA were obtained from Sigma (St. Louis, Mo.). Anti-biotin antibody was obtained from Calbiochem (La Jolla, Calif.). Linbro microtiter plates were obtained from Flow Labs (McLean, Va.). ADP reagent was obtained from Sigma (St. Louis, Mo.).
This assay was essentially the same as previously reported [Niiya et al., Blood, 70:475-483 (1987)]. The purified human vitronectin receptor (αvβ3) was diluted from stock solutions to 1.0 μg/mL in Tris-buffered saline containing 1.0 mM Ca^++, Mg^++, and Mn^++, pH 7.4 (TBS^+++). The diluted receptor was immediately transferred to Linbro microtiter plates at 100 μL/well (100 ng receptor/well). The plates were sealed and incubated overnight at 4° C. to allow the receptor to bind to the wells. All remaining steps were at room temperature. The assay plates were emptied and 200 μL of 1% RIA grade BSA in TBS^+++ (TBS^+++/BSA) were added to block exposed plastic surfaces. Following a 2 hour incubation, the assay plates were washed with TBS^+++ using a 96 well plate washer. Logarithmic serial dilution of the test compound and controls were made starting at a stock concentration of 2 mM and using 2 nM biotinylated vitronectin in TBS^+++/BSA as the diluent. This premixing of labeled ligand with test (or control) ligand, and subsequent transfer of 50 μL aliquots to the assay plate was carried out with a CETUS Propette robot; the final concentration of the labeled ligand was 1 nM and the highest concentration of test compound was 1.0×10^−4 M. The competition occurred for two hours after which all wells were washed with a plate washer as before. Affinity purified horseradish peroxidase labeled goat anti-biotin antibody was diluted 1:3000 in TBS^+++/BSA and 125 μL were added to each well. After 30 minutes, the plates were washed and incubated with OPD/H2O2 substrate in 100 mM/L Citrate buffer, pH 5.0. The plate was read with a microtiter plate reader at a wavelength of 450 nm and when the maximum-binding control wells reached an absorbance of about 1.0, the final A450 were recorded for analysis. The data were analyzed using a macro written for use with the EXCELJ spreadsheet program. The mean, standard deviation, and % CV were determined for duplicate concentrations. The mean A450 values were normalized to the mean of four maximum-binding controls (no competitor added)(B-MAX). The normalized values were subjected to a four parameter curve fit algorithm [Rodbard et al., Int.

Experiment [2] concerns the target T2, Human fibrinogen receptor IIb/IIIa (Homo sapiens, UniProt P05106+P08514).
T2 construct: Human fibrinogen receptor ([…]) was purified from outdated platelets; from tissue; host or cells: outdated human platelets
Kind of experiment: Purified IIb/IIIa receptor assay: solid phase receptor assay, competition with biotinylated vitronectin. In kind it is binding. To be noted: 1 nM biotinylated vitronectin. From the text: Purified IIb/IIIa Receptor Assay
Human fibrinogen receptor ([…]) was purified from outdated platelets. (Pytela, R., Pierschbacher, M. D., Argraves, S., Suzuki, S., and Rouslahti, E. “Arginine-Glycine-Aspartic acid adhesion receptors”, Methods in Enzymology 144(1987):475-489.) Human vitronectin was purified from fresh frozen plasma as described in Yatohgo, T., Izumi, M., Kashiwagi, H., and Hayashi, M., “Novel purification of vitronectin from human plasma by heparin affinity chromatography,” Cell Structure and Function 13(1988):281-292. Biotinylated human vitronectin was prepared by coupling NHS-biotin from Pierce Chemical Company (Rockford, Ill.) to purified vitronectin as previously described. (Charo, I. F., Nannizzi, L., Phillips, D. R., Hsu, M. A., Scarborough, R. M., “Inhibition of fibrinogen binding to GP IIb/IIIa by a GP IIIa peptide”, J. Biol. Chem. 266(3)(1991): 1415-1421.) Assay buffer, OPD substrate tablets, and RIA grade BSA were obtained from Sigma (St. Louis, Mo.). Anti-biotin antibody was obtained from Calbiochem (La Jolla, Calif.). Linbro microtiter plates were obtained from Flow Labs (McLean, Vs.). ADP reagent was obtained from Sigma (St. Louis, Mo.).
This assay is essentially the same reported in Niiya, K., Hodson, E., Bader, R., Byers-Ward, V. Koziol, J. A., Plow, E. F. and Ruggeri, Z. M., “Increased surface expression of the membrane glycoprotein IIb/IIIa complex induced by platelet activation: Relationships to the binding of fibrinogen and platelet aggregation”, Blood 70(1987):475-483. The purified human fibrinogen receptor ([…]) was diluted from stock solutions to 1.0 μg/mL in Tris-buffered saline containing 1.0 mM Ca^++, Mg^++, and Mn^++, pH 7.4 (TBS^+++). The diluted receptor was immediately transferred to Linbro microtiter plates at 100 μL/well (100 ng receptor/well). The plates were sealed and incubated overnight at 4° C. to allow the receptor to bind to the wells. All remaining Steps were at room temperature. The assay plates were emptied and 200 μL of 1% RIA grade BSA in TBS^+++ (TBS^+++/BSA) were added to block exposed plastic surfaces. Following a 2 hour incubation, the assay plates were washed with TBS^+++ using a 96 well plate washer. Logarithmic serial dilution of the test compound and controls were made starting at a stock concentration of 2 mM and using 2 nM biotinylated vitronectin in TBS^+++/BSA as the diluent. This premixing of labeled ligand with test (or control) ligand, and subsequent transfer of 50 μL aliquots to the assay plate was carried out with a CETUS Propette robot; the final concentration of the labeled ligand was 1 nM and the highest concentration of test compound was 1.0×10^−4 M. The competition occurred for two hours after which all wells were washed with a plate washer as before. Affinity purified horseradish peroxidase labeled goat anti-biotin antibody was diluted 1:3000 in TBS^+++/BSA and 125 μL were added to each well. After 30 minutes, the plates were washed and incubated with […] substrate in 100 mM/L citrate buffer, pH 5.0. The plate was read with a microtiter plate reader at a wavelength of 450 nm and when the maximum-binding control wells reached an absorbance of about 1.0, the final A450 were recorded for analysis. The data were analyzed using a macro written for use with the EXCELJ spreadsheet program. The mean, standard deviation, and % CV were determined for duplicate concentrations. The mean A450 values were normalized to the mean of four maximum-binding controls (no competitor added)(B-MAX). The normalized values were subjected to a four parameter curve fit algorithm, [Robard et al., Int. Atomic Energy Agency.

Molecules are shown by their SMILES. Structures can show the parent of a compound that is named as a salt.

As for `COc1ncc(C(=O)NCC(=O)NC(CC(=O)O)c2cc(Cl)cc(Cl)c2O)cc1NC1=NCCN1` (stereo not drawn) [Example 17, N-[[5-(4,5,-dihydro-1H-imidazol-2-yl)amino]-6-methoxy-3-pyridinyl]carbonyl]glycyl]-3-(3,5-dichloro-2-hydroxyphenyl)-β-alanine, bis(trifluoroacetate) salt], the IC50 stood at 0.46 nM in experiment [1] and 724 nM in experiment [2].
As to `CC1(C)CN=C(Nc2cc(C(=O)NCC(=O)N[C@@H](CC(=O)O)c3cc(Cl)cc(Cl)c3O)c[nH]c2=O)NC1` [Example 47], the concentration for half-maximal inhibition (IC50) turned out to be 0.99 nM in experiment [1] and 6710 nM in experiment [2].
On the same counts, the results for `O=C(O)CC(NC(=O)CNC(=O)c1c[nH]c(=O)c(NC2=NCCN2)c1)c1cc(Cl)cc(Cl)c1O` (stereo not drawn) [Example 20, N-[[5-[(4,5,-dihydro-1H-imidazol-2-yl)amino]-1,6-dihydro-6-oxo-3-pyridinyl]-carbonyl]glycyl-3-(3,5-dichloro-2-hydroxyphenyl)-β-alanine, (trifluoroacetate) salt] are 0.32 nM and 2020 nM.
On the same counts, the results for `O=C(O)C[C@H](NC(=O)CNC(=O)c1cncc(N=C2NCC(O)CN2)c1)c1cc(Cl)cc(Br)c1O` (stereo partly shown) [Example 9] are 0.18 nM and 244 nM.
With `O=C(O)C[C@H](NC(=O)CNC(=O)c1c[nH]c(=O)c(NC2=NCC(O)CN2)c1)c1cc(Cl)cc(Cl)c1O` (stereo partly drawn) [Example 21, (3S)-N-[[1,6-dihydro-6-oxo-5-[(1,4,5,6-tetrahydro-5-hydroxy-2-pyrimidinyl)amino]-3-pyridinyl]carbonyl]glycyl-3-(3,5-dichloro-2-hydroxyphenyl)-β-alanine, trifluoroacetate salt], the IC50 in experiment [1] is 0.2 nM; in experiment [2], 551 nM.
For `O=C(O)C[C@H](NC(=O)CNC(=O)c1cscc1CNC1=NCC(O)CN1)c1cc(Cl)cc(Cl)c1O` (stereo partly shown) [Example 39], the IC50 in experiment [1] was 1920 nM; in experiment [2] it was 2460 nM.
For `Cn1cc(NC2=NCC(O)CN2)cc1C(=O)NCC(=O)N[C@@H](CC(=O)O)c1cc(Cl)cc(Cl)c1O` (stereo partly shown) [Example 38], the IC50 came to 278 nM in experiment [1] and 115 nM in experiment [2].
Consider `O=C(O)C[C@H](NC(=O)CNC(=O)c1cc(NC2=NCC(O)CN2)cs1)c1cc(Cl)cc(Cl)c1O` (stereo partly drawn) [Example 12, (3S)-N-[[4-[(1,4,5,6-tetrahydro-5-hydroxy-2-pyrimidinyl)amino]-2-thienyl]carbonyl]glycyl-3-(3,5-dichloro-2-hydroxyphenyl)-β-alanine, trifluoroacetate salt], for which the IC50 in experiment [1] was 4.5 nM; in experiment [2], 442 nM.
The matching figures for `O=C(O)CC(NC(=O)CNC(=O)c1cncc(NC2=NCCCN2)c1)c1cc(Cl)cc(Cl)c1O` (stereo not shown) [Example 6]: 0.27 nM and 1260 nM.
With `O=C(O)C[C@H](NC(=O)CNC(=O)c1cncc(N=C2NCC(O)CN2)c1)c1cc(Cl)cc(Cl)c1O` (stereo partly shown) [Example 10], the IC50 in experiment [1] was determined as 0.14 nM; in experiment [2], 161 nM.
On the same counts, the results for `O=C(O)CC(NC(=O)CNC(=O)c1c[nH]c(=O)c(NC2=NCC(O)CN2)c1)c1cc(Br)cc(Br)c1O` (stereo not shown) [Example 29] are 0.46 nM and 1380 nM.
On the same counts, the results for `O=C(O)C[C@H](NC(=O)CNC(=O)c1cc(=O)cc(NC2=NCC(O)CN2)[nH]1)c1cc(Cl)cc(Br)c1O` (stereo partly shown) [Example 31] are 3940 nM and 1800 nM.
The matching figures for `N=C(N)Nc1nc(C(=O)NCC(=O)NC(CC(=O)O)c2cccnc2)cs1` (stereo not shown) [Example 8]: 95.1 nM and 857 nM.
Turning to `O=C(O)C[C@H](NC(=O)CNC(=O)c1cncc(NC2=NCC(O)CN2)c1)c1cc(Br)cc(Cl)c1O` (stereo partly shown) [Example 7], the IC50 in experiment [1] is 0.21 nM; in experiment [2], 361 nM.
The matching figures for `O=C(O)C[C@H](NC(=O)CNC(=O)c1c[nH]c(=O)c(NC2=NCCN2)c1)c1cc(Br)cc(Br)c1O` [Example 36]: 1.13 nM and 970 nM.
Consider `O=C(O)CC(NC(=O)CNC(=O)c1ccc(NC2=NCCN2)s1)c1cc(Cl)cc(Cl)c1O` (stereo not drawn) [Example 16, N-[[5-(4,5,-dihydro-1H-imidazol-2-yl)amino]-2-thienyl]carbonyl]glycyl]-3-(3,5-dichloro-2-hydroxyphenyl)-β-alanine, trifluoroacetate salt], for which the IC50 is 22000 nM in experiment [1] and 6180 nM in experiment [2].
With `N=C(N)Nc1cncc(C(=O)NCC(=O)NC(CC(=O)O)c2cc(Cl)cc(Cl)c2O)c1` (stereo not shown) [Example 2], the IC50 in experiment [1] is 1.32 nM; in experiment [2], 272 nM.
With `O=C(O)CC(NC(=O)CNC(=O)c1cc(NC2=NCCN2)[nH]n1)c1cc(Cl)cc(Cl)c1O` (stereo not drawn) [Example 25, N-[[5-[(4,5-dihydro-1H-imidazol-2-yl)amino]-1H-pyrazol-3-yl]carbonyl]-glycyl-3-(3,5-dichloro-2-hydroxyphenyl)-β-alanine, (trifluoroacetate) salt], the figures for the IC50 in experiment [1] and in experiment [2] were 1870 nM and 3910 nM, respectively.
On the same counts, the results for `COCCOCn1cc(C(=O)NCC(=O)NC(CC(=O)O)c2cc(Br)cc(Br)c2O)cc(NC2=NCC(O)CN2)c1=O` (stereo not shown) [Example 28] are 0.43 nM and 984 nM.
On to `O=C(O)CC(NC(=O)CNC(=O)c1cc(NC2=NCCN2)cs1)c1cc(Cl)cc(Cl)c1O` (stereo not drawn) [Example 13, N-[[4-[(4,5-dihydro-1H-imidazol-2-yl)amino]-2-thienyl]carbonyl]glycyl-3-(3,5-dichloro-2-hydroxyphenyl)-β-alanine, trifluoroacetate salt], for which the figures for the IC50 in experiment [1] and in experiment [2] were 9.32 nM and 780 nM, respectively.
